The supplement of paper PMC10307832

How the values were obtained:
Test in all cases: relative viability (nuclei count vs DMSO), 5 days (fraction); higher = more cells survive
XMD13-2 + Dasatinib = compound: C1CC1C(=O)NC2=NNC3=C2C=CC(=C3)C4=CC(=CC=C4)C(=O)NC5CC5 [XMD13-2] + Cc1nc(Nc2ncc(C(=O)Nc3c(C)cccc3Cl)s2)cc(N2CCN(CCO)CC2)n1 [Dasatinib] (partner 0.075 µM)
How it was run: (§1)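 Cells from lung cancer lines were seeded into 1536-well plates and, one day later, dosed by pin tool. Treatments were either a single drug or a fixed dose of an anchor drug with five library-drug doses (not always all listed) in √10 steps. After 5 days, nuclei were stained in a one-step fixation (final 0.05% Triton X-100, 1% formaldehyde, 1 ug/ml Hoechst) and counted on 4× images, and relative viability is the treated-to-vehicle nuclei ratio, as the median of duplicate plates.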

XMD13-2 + Phenformin = compound: C1CC1C(=O)NC2=NNC3=C2C=CC(=C3)C4=CC(=CC=C4)C(=O)NC5CC5 [XMD13-2] + N=C(N)NC(=N)NCCc1ccccc1 [Phenformin] (partner 250 µM)
How it was run: as §1

ALW-II-49-7 + Lapatinib = compound: Cc1ccc(C(=O)Nc2cccc(C(F)(F)F)c2)cc1Nc1cncc(C(N)=O)c1 [ALW-II-49-7] + CS(=O)(=O)CCNCc1ccc(-c2ccc3ncnc(Nc4ccc(OCc5cccc(F)c5)c(Cl)c4)c3c2)o1 [Lapatinib] (partner 2 µM)
How it was run: as §1

Dasatinib + OSI-027 = compound: Cc1nc(Nc2ncc(C(=O)Nc3c(C)cccc3Cl)s2)cc(N2CCN(CCO)CC2)n1 [Dasatinib] + COc1cccc2cc(-c3nc([C@H]4CC[C@H](C(=O)O)CC4)n4ncnc(N)c34)[nH]c12 [OSI-027] (partner 0.5 µM)
How it was run: as §1

Row | Cell Line | relative viability (XMD13-2 + Dasatinib; first compound 0.05 µM) | relative viability (XMD13-2 + Dasatinib; first compound 0.1581 µM) | relative viability (XMD13-2 + Dasatinib; first compound 0.5 µM) | relative viability (XMD13-2 + Dasatinib; first compound 1.581 µM) | relative viability (XMD13-2 + Dasatinib; first compound 5 µM) | relative viability (XMD13-2 + Phenformin; first compound 0.05 µM) | relative viability (XMD13-2 + Phenformin; first compound 0.1581 µM) | relative viability (XMD13-2 + Phenformin; first compound 0.5 µM) | relative viability (XMD13-2 + Phenformin; first compound 1.581 µM) | relative viability (XMD13-2 + Phenformin; first compound 5 µM) | relative viability (ALW-II-49-7 + Lapatinib; first compound 0.08 µM) | relative viability (ALW-II-49-7 + Lapatinib; first compound 0.253 µM) | relative viability (ALW-II-49-7 + Lapatinib; first compound 0.8 µM) | relative viability (ALW-II-49-7 + Lapatinib; first compound 2.53 µM) | relative viability (ALW-II-49-7 + Lapatinib; first compound 8 µM) | relative viability (Dasatinib + OSI-027; first compound 0.005 µM) | relative viability (Dasatinib + OSI-027; first compound 0.01581 µM) | relative viability (Dasatinib + OSI-027; first compound 0.05 µM) | relative viability (Dasatinib + OSI-027; first compound 0.1581 µM) | relative viability (Dasatinib + OSI-027; first compound 0.5 µM)
1 | NCI-H2085 | 0.265 | 0.246 | 0.232 | 0.235 | 0.243 | 0.825 | 0.715 | 0.759 | 0.661 | 0.802 | 0.892 | 0.858 | 0.718 | 0.776 | 0.707 | 0.554 | 0.626 | 0.34 | 0.251 | 0.164
2 | NCI-H2087 | 0.997 | 0.826 | 0.938 | 0.87 | 0.796 | 0.479 | 0.487 | 0.515 | 0.498 | 0.362 | 0.976 | 1.07 | 0.839 | 1.15 | 1.01 | 0.571 | 0.607 | 0.697 | 0.531 | 0.278
3 | NCI-H2126 | 0.76 | 0.595 | 0.633 | 0.535 | 0.561 | 0.531 | 0.474 | 0.522 | 0.522 | 0.553 | 0.603 | 0.826 | 0.765 | 0.737 | 0.752 | 0.722 | 0.551 | 0.623 | 0.611 | 0.307
4 | NCI-H2170 | 0.791 | 0.518 | 0.601 | 0.55 | 0.541 | 0.482 | 0.433 | 0.424 | 0.399 | 0.398 | 0.313 | 0.284 | 0.264 | 0.302 | 0.302 | 0.71 | 0.635 | 0.711 | 0.568 | 0.323
5 | NCI-H2228 | 0.753 | 0.586 | 0.59 | 0.384 | 0.532 | 0.346 | 0.37 | 0.295 | 0.313 | 0.362 | 0.996 | 0.595 | 0.984 | 1.08 | 0.659 | 0.757 | 0.552 | 0.522 | 0.31 | 0.308
6 | NCI-H2347 | 0.638 | 0.292 | 0.284 | 0.298 | 0.304 | 0.615 | 0.507 | 0.404 | 0.26 | 0.51 | 1.11 | 0.958 | 1.11 | 0.85 | 0.8 | 0.233 | 0.242 | 0.269 | 0.234 | 0.218
7 | NCI-H2405 | 0.211 | 0.259 | 0.239 | 0.171 | 0.226 | 0.436 | 0.417 | 0.411 | 0.397 | 0.438 | 1.01 | 1.24 | 0.972 | 0.938 | 0.89 | 0.581 | 0.418 | 0.353 | 0.245 | 0.161
8 | NCI-H3122 | 1.01 | 0.863 | 0.843 | 0.723 | 0.77 | 0.612 | 0.37 | 0.4 | 0.374 | 0.353 | 1.11 | 0.92 | 1.05 | 1.11 | 1.05 | 0.994 | 1.01 | 1.05 | 0.921 | 0.82
9 | PC-3 [JPC-3] | 1.22 | 0.991 | 1 | 0.959 | 1.11 | 0.5 | 0.49 | 0.48 | 0.523 | 0.54 | 0.387 | 0.461 | 0.485 | 0.471 | 0.419 | 0.764 | 0.739 | 0.759 | 0.73 | 0.38
10 | PC-14 | 0.279 | 0.296 | 0.335 | 0.242 | 0.317 | 0.635 | 0.794 | 0.556 | 0.478 | 0.838 | 0.286 | 0.303 | 0.308 | 0.331 | 0.292 | 0.99 | 0.772 | 0.679 | 0.384 | 0.0679
11 | RERF-LC-KJ | 0.983 | 0.918 | 0.801 | 0.72 | 0.694 | 0.5 | 0.435 | 0.446 | 0.407 | 0.396 | 0.867 | 0.948 | 0.867 | 0.941 | 0.859 | 0.576 | 0.475 | 0.514 | 0.382 | 0.376
12 | SK-LU-1 | 0.195 | 0.185 | 0.199 | 0.164 | 0.199 | 0.609 | 0.528 | 0.594 | 0.592 | 0.525 | 0.738 | 0.984 | 0.774 |  | 0.607 | 0.271 | 0.167 | 0.167 | 0.14 | 0.152
13 | SK-MES-1 | 0.347 | 0.349 | 0.296 | 0.325 | 0.374 | 0.699 | 0.657 | 0.696 | 0.598 | 0.644 | 0.481 | 0.458 | 0.477 | 0.487 | 0.474 | 0.738 | 0.57 | 0.409 | 0.21 | 0.14
14 | SW 1573 | 0.593 | 0.458 | 0.514 | 0.454 | 0.397 | 0.443 | 0.385 | 0.384 | 0.26 | 0.24 | 1.14 | 1.21 | 1.1 | 1.2 | 1.15 | 0.638 | 0.532 | 0.393 | 0.408 | 0.296
